Reference: ChEMBL document CHEMBL5576091, “2'-β-Methylselenyl nucleos(t)ide analogs as reverse transcriptase inhibitors against diverse HIV mutants” (Bioorg Med Chem, 2024)
Active and inactive are the calls of the source. The rule behind the calls is not given here.

Columns and labels:
[1] = system: Human immunodeficiency virus 1; assay: Antiviral activity against azidothymidine resistant HIV-1 harboring RT M41L/T215Y mutant infected in human TZM-bl cells incubated for 48 hrs by steady glo reagent based […] luminometer analysis; format: functional, organism-based; conditions: Human immunodeficiency virus 1, TZM-bl
[2] = system: Human immunodeficiency virus 1; assay: Antiviral activity against wild type HIV-1 infected in human TZM-bl cells incubated for 48 hrs by steady glo reagent based […] luminometer analysis; format: functional, organism-based; conditions: Human immunodeficiency virus 1, TZM-bl
[3] = Cytotoxicity against human TZM-bl cells assessed as reduction in cell viability incubated for 48 hrs by MTT assay; format: toxicity, cell-based
[4] = Cytotoxicity against human MT4 cells assessed as reduction in cell viability incubated for 5 days by MTT assay; format: toxicity, cell-based; conditions: time 5 day
[5] = system: Human immunodeficiency virus 1; assay: Antiviral activity against multidrug resistant HIV-1 harboring RT M41L/T69SSG/T215Y mutant infected in human TZM-bl cells incubated for 48 hrs by steady glo reagent based […] luminometer analysis; format: functional, organism-based; conditions: Human immunodeficiency virus 1, TZM-bl
[6] = system: Human immunodeficiency virus 1; assay: Antiviral activity against lamivudine resistant HIV-1 harboring RT M184V mutant infected in human TZM-bl cells incubated for 48 hrs by steady glo reagent based […] luminometer analysis; format: functional, organism-based; conditions: Human immunodeficiency virus 1, TZM-bl
[7] = molecular target: Human immunodeficiency virus type 1 reverse transcriptase (Human immunodeficiency virus 1) (UniProt Q72547); assay: Substrate activity at HIV-1 reverse transcriptase assessed as formation of single elongation product at 50 to 400 uM incubated for 60 mins in presence of 14.4 ng/uL enzyme, FAM labeled primer DNA, template RNA, dNTPs by fluorescence based primer extension assay; conditions: dose 50-400 µM
[8] = molecular target: Human immunodeficiency virus type 1 reverse transcriptase (Human immunodeficiency virus 1) (UniProt Q72547); assay: Substrate activity at HIV-1 reverse transcriptase assessed as increase in multiple base elongation product at 100 uM in presence of FAM labeled 13-mer primer DNA, 20-mer template RNA, dNTPs by fluorescence based primer extension assay; conditions: time 0-60 min, TDE = time-dependent effect
[9] = molecular target: Human immunodeficiency virus type 1 reverse transcriptase (Human immunodeficiency virus 1) (UniProt Q72547); assay: (§1) Substrate activity at HIV-1 reverse transcriptase assessed as formation of single elongation product by measuring elongation efficiency at 400 uM incubated for 5 mins in presence of 14.4 ng/uL enzyme, FAM labeled 13-mer primer DNA, 20-mer template RNA, dNTPs by fluorescence based primer extension assay relative to control
Homo sapiens [10] = organism: Homo sapiens; assay: Substrate activity at Taq DNA polymerase (unknown origin) assessed as incorporation into DNA incubated for 60 mins in presence of FAM labeled primer DNA, template DNA, dNTPs by fluorescence based primer extension assay
[11] = molecular target: Human immunodeficiency virus type 1 reverse transcriptase (Human immunodeficiency virus 1) (UniProt Q72547); assay: Substrate activity at HIV-1 reverse transcriptase assessed as 15-mer product formation incubated for 60 mins in presence of 14.4 ng/uL enzyme, FAM labeled primer DNA, template RNA, dNTPs by fluorescence based primer extension assay; conditions: dose 50-400 µM
[12] = molecular target: Human immunodeficiency virus type 1 reverse transcriptase (Human immunodeficiency virus 1) (UniProt Q72547); assay: as §1, with “60” for “5”, “3.6” for “14.4”
[13] = molecular target: Human immunodeficiency virus type 1 reverse transcriptase (Human immunodeficiency virus 1) (UniProt Q72547); assay: Substrate activity at HIV-1 reverse transcriptase assessed as mismatch elongation mediated 20-mer product formation at 50 to 400 uM incubated for 60 mins in presence of 14.4 ng/uL enzyme, FAM labeled primer DNA, template RNA, dNTPs by fluorescence based primer extension assay; conditions: dose 50-400 µM
[14] = molecular target: Human immunodeficiency virus type 1 reverse transcriptase (Human immunodeficiency virus 1) (UniProt Q72547); assay: as §1, with “60” for “5”
Homo sapiens [15] = organism: Homo sapiens; assay: Substrate activity at Phi29 DNA polymerase (unknown origin) assessed as incorporation into DNA incubated for 60 mins in presence of FAM labeled primer DNA, template DNA, dNTPs by fluorescence based primer extension assay
[16] = molecular target: Human immunodeficiency virus type 1 reverse transcriptase (Human immunodeficiency virus 1) (UniProt Q72547); assay: as §1, with “100” for “400”, “60” for “5”, “of” for “of 14.4 ng/uL enzyme,”
[17] = molecular target: Human immunodeficiency virus type 1 reverse transcriptase (Human immunodeficiency virus 1) (UniProt Q72547); assay: Substrate activity at HIV-1 reverse transcriptase assessed as 14-mer product formation incubated for 60 mins in presence of 14.4 ng/uL enzyme, FAM labeled primer DNA, template RNA, dNTPs by fluorescence based primer extension assay; conditions: dose 50-400 µM
[18] = molecular target: Human immunodeficiency virus type 1 reverse transcriptase (Human immunodeficiency virus 1) (UniProt Q72547); assay: Substrate activity at HIV-1 reverse transcriptase assessed as formation of single elongation product at 400 uM in presence of 3.6 ng/uL enzyme, FAM labeled 13-mer primer DNA, 20-mer template RNA, dNTPs by fluorescence based primer extension assay; conditions: time 0-60 min, TDE = time-dependent effect
[19] = system: Avian myeloblastosis virus; assay: Substrate activity at Avian myeloblastosis virus reverse transcriptase assessed as incorporation into DNA incubated for 60 mins in presence of FAM labeled primer DNA, template DNA, dNTPs by fluorescence based primer extension assay
[20] = molecular target: Human immunodeficiency virus type 1 reverse transcriptase (Human immunodeficiency virus 1) (UniProt Q72547); assay: Substrate activity at HIV-1 reverse transcriptase assessed as formation of multiple elongation products at 50 to 400 uM incubated for 60 mins in presence of 14.4 ng/uL enzyme, FAM labeled primer DNA, template RNA, dNTPs by fluorescence based primer extension assay; conditions: dose 50-400 µM
[21] = molecular target: Human immunodeficiency virus type 1 reverse transcriptase (Human immunodeficiency virus 1) (UniProt Q72547); assay: Substrate activity at HIV-1 reverse transcriptase assessed as formation of single elongation product at 100 uM incubated for 60 mins in presence of FAM labeled 13-mer primer DNA, 20-mer template RNA, dNTPs by fluorescence based primer extension assay
[22] = molecular target: Human immunodeficiency virus type 1 reverse transcriptase (Human immunodeficiency virus 1) (UniProt Q72547); assay: Substrate activity at HIV-1 reverse transcriptase assessed as mismatch elongation mediated 19-mer product formation at 50 to 400 uM incubated for 60 mins in presence of 14.4 ng/uL enzyme, FAM labeled primer DNA, template RNA, dNTPs by fluorescence based primer extension assay; conditions: dose 50-400 µM

| SMILES | EC50 [1] [µM] | EC50 [2] [µM] | CC50 at 48 h [3] [µM] | CC50 at 120 h [4] [µM] | EC50 [5] [µM] | EC50 [6] [µM] | other results |
| --- | --- | --- | --- | --- | --- | --- | --- |
| Nc1ccn([C@@H]2CS[C@H](CO)O2)c(=O)n1 [LAMIVUDINE] | 0.85 | 0.52 | > 100 | > 100 | 9.8 | > 100 |  |
| C[Se][C@H]1[C@H](O)[C@@H](COP(=O)(N[C@@H](C)C(=O)OC(C)C)Oc2ccccc2)O[C@H]1n1ccc(=O)[nH]c1=O (stereo not given in full) |  |  | 0.004 | 0.007 |  |  |  |
| C[Se][C@H]1[C@H](O)[C@@H](CO)O[C@H]1n1cnc2c(N)nc(N)nc21 | > 100 | > 100 | > 100 | > 100 | > 100 | > 100 |  |
| Nc1ncnc2c1ncn2[C@H]1CC[C@@H](COP(=O)(O)OP(=O)(O)OP(=O)(O)O)O1 |  |  |  |  |  |  | Activity [7]: Active |
| C[Se][C@H]1[C@H](O)[C@@H](CO)O[C@H]1n1cnc2c(N)nc(F)nc21 | > 20 | > 20 | 29 | 12 | > 20 | > 20 |  |
| C[Se][C@H]1[C@H](O)[C@@H](CO[P@@](=O)(N[C@@H](C)C(=O)OC(C)C)Oc2ccccc2)O[C@H]1n1cnc2c(N)ncnc21 | 5.8 | 2.2 | > 100 | > 100 | 2.8 | 5.7 |  |
| C[Se][C@H]1[C@H](O)[C@@H](CO[P@@](=O)(N[C@@H](C)C(=O)OC(C)C)Oc2ccccc2)O[C@H]1n1cnc2c(N)nc(F)nc21 |  | > 20 | 80 | > 100 |  |  |  |
| C[Se][C@H]1[C@H](O)[C@@H](COP(=O)(N[C@@H](C)C(=O)OC(C)C)Oc2ccccc2)O[C@H]1n1cnc2c(N)nc(N)nc21 (stereo not given in full) |  | > 0.8 | 2.8 | 5.5 |  |  |  |
| C[Se][C@H]1[C@H](O)[C@@H](CO)O[C@H]1n1cc(C)c(=O)[nH]c1=O |  |  | 0.25 | 0.72 |  |  |  |
| CCCC(CC)OC(=O)[C@H](C)N[P@](=O)(OC[C@H]1O[C@@H](n2cnc3c(N)ncnc32)[C@@H]([Se]C)[C@@H]1O)Oc1ccccc1 (stereo not given in full) | 5.5 | 2.6 | > 100 | > 100 |  | 4.4 |  |
| Cc1cn([C@H]2C[C@H](N=[N+]=[N-])[C@@H](CO)O2)c(=O)[nH]c1=O [ZIDOVUDINE] | 0.09 | 0.03 | > 100 | 51 | 13 | 0.022 |  |
| C[Se][C@H]1[C@H](O)[C@@H](COP(=O)(N[C@@H](C)C(=O)OC(C)C)Oc2ccccc2)O[C@H]1n1cnc2c(=O)[nH]c(N)nc21 (stereo not given in full) |  | > 20 | 63 | 51 |  |  |  |
| C[Se][C@H]1[C@H](O)[C@@H](COP(=O)(N[C@@H](C)C(=O)OC(C)C)Oc2ccccc2)O[C@H]1n1cnc2c(N)ncnc21 (stereo not given in full) | 7 | 3.7 | > 100 | > 100 | 3.8 | 6.8 |  |
| C[Se][C@H]1[C@H](O)[C@@H](CO)O[C@H]1n1ccc(=O)[nH]c1=O |  |  | 0.005 | 0.006 |  |  |  |
| C[Se][C@H]1[C@H](O)[C@@H](CO)O[C@H]1n1cnc2c(=O)[nH]c(N)nc21 | > 100 | > 100 | > 100 | > 100 | > 100 | > 100 |  |
| C[Se][C@H]1[C@H](O)[C@@H](COP(=O)(N[C@@H](C)C(=O)OC(C)C)Oc2ccccc2)O[C@H]1n1cc(C)c(=O)[nH]c1=O (stereo not given in full) |  |  | 0.006 | 0.007 |  |  |  |
| Nc1ncnc2c1ncn2[C@H]1C[C@H](O)[C@@H](COP(=O)(O)OP(=O)(O)OP(=O)(O)O)O1 |  |  |  |  |  |  | Activity [8]: Tde |
| COc1nc(N)nc2c1ncn2[C@@H]1O[C@H](CO)[C@@H](O)[C@@H]1[Se]C | > 20 | > 20 | > 100 | > 100 | > 20 | > 20 |  |
| C[Se][C@H]1[C@H](O)[C@@H](CO)O[C@H]1n1cnc2c(N)ncnc21 | > 100 | > 100 | > 100 | > 100 | > 100 | > 100 |  |
| C[Se][C@H]1[C@H](O)[C@@H](COP(=O)(O)OP(=O)(O)OP(=O)(O)O)O[C@H]1n1cnc2c(N)ncnc21 |  |  |  |  |  |  | Activity [9]: 70%; Activity (Homo sapiens [10]): inactive; Activity [11]: Dose-Dependent Effect; Activity [12]: 77%; Activity [7]: Active; Activity [13]: Active; Activity [14]: 94%; Activity (Homo sapiens [15]): inactive; Activity [16]: 80%; Activity [17]: Dose-Dependent Effect; Activity [18]: Tde; Activity [19]: Active; Activity [20]: Active; Activity [21]: Active; Activity [22]: Active |
| COc1nc(N)nc2c1ncn2[C@@H]1O[C@H](COP(=O)(N[C@@H](C)C(=O)OC(C)C)Oc2ccccc2)[C@@H](O)[C@@H]1[Se]C (stereo not given in full) | 45 | 54 | > 100 | > 100 | 61 | 46 |  |
| O=c1[nH]cnc2c1ncn2[C@H]1CC[C@@H](CO)O1 [DIDANOSINE] | 4.6 | 4.2 | > 100 | > 100 | 25 | 7.1 |  |
